Reference: patent EP4548971A1, “1,4-BENZOTHIAZEPINES AND RELATED COMPOUNDS WITH CYCLOPROPANOL GROUPS AS MULTI-TARGETED DRUGS” (Georg-August-Universität Göttingen Stiftung Öffentlichen …, priority 2023, dated 2025)

Target: T1, WT RyR2 (Mus musculus, UniProt E9Q401)
T1 construct: expressed in transfected cells
Assay: Time-lapse [Ca2+]ER assay (RyR2 R-CEPIA1er assay) in HEK-293 cells
Format: cell-based
Conditions: for RyR2 effect class: 25 µM in RyR2 R-CEPIA1er assay; for effect on [Ca^2+]ER (R-CEPIA1er fluorescence), in words: 25 µM, vs. 0.1 v/v% DMSO; for EC50: HEK-293 WT RyR2 R-CEPIA1er cells, range after the semicolon is not explained
Procedure: HEK-293 cells stably expressing R-CEPIA1er and WT RyR2 (generous gift from Takashi Murayama, Juntendo University School of Medicine, Tokyo) were cultured in Dulbecco's Modified Eagle medium (DMEM, Thermo Fisher Scientific, Darmstadt, Germany) supplemented with 10% fetal bovine serum (FBS, Thermo Fisher Scientific, Darmstadt, Germany), 0.9% Penicillin/Streptomycin (Merck KGaA, Darmstadt, Germany), 15ug/mL Blasticidine (Invivogen, Toulouse, France), 100 µg/mL Hygromycin (Merck KGaA, Darmstadt, Germany) and 400 µg/mL G418 (Thermo Fisher Scientific, Darmstadt, Germany) in a humidified 5% COz incubator at 37 °C. To induce the expression of WT RyR2 in the endoplasmic reticulum (ER), 2 µg/mL Doxycycline (Merck KGaA, Darmstadt, Germany) was added 24 h before experiments.
The fluorescent plate reader [Ca^2+]ER assay was performed according to the slightly modified protocol of Murayama & Kurebayashi [T. Murayama, N. Kurebayashi, Assays for Modulators of Ryanodine Receptor (RyR)/Ca(2+) Release Channel Activity for Drug Discovery for Skeletal Muscle and Heart Diseases. Curr. Protoc. […] After the cells were inducted with Doxycycline for 24 h, changes in ER calcium concentrations [Ca^2+]ER were measured on a multiwell plate reader TECAN Spark 20M at 37 °C. The 1000 × stock solutions of the test compounds were prepared in DMSO. Briefly, the culture medium was removed and 100 µl of Tyrode's solution containing 2 mM CaCl2 was added to the cells. The time courses were recorded in each well. Fluorescence was evoked by 560 nm excitation wavelength and collected in a bottom-read mode at 610 nm. Data was recorded every 10 s, exposure - 20 flashes, excitation bandwidth - 20 nm, emission bandwidth - 20 nm. 100 µl of 0 - 100 µM solution of test compound in Tyrode's solution containing 2 mM CaCh was injected in each well (speed 100 µl/s) at the 90 s time point. […] The 0.1 v/v% DMSO and 2 mM CaCh Tyrode's solution was used as a control.
The dose response curves were calculated using the software package GraphPad Prism version 8.3.1. (GraphPad Software, Inc.). All data are presented as mean ± S.D. in 3 independent experiments. Y=Bottom + (Top-Bottom)/(1+10^((LogEC50-X)*HillSlope)) was used where HillSlope describes the steepness of the curve, Top and Bottom are plateaus in the units of the Y axis.
The inventors measured changes in Ca^2+ levels in the endoplasmic reticulum (ER) of HEK-293 cells with inducible expression of wild-type RyR2 (WT RyR2) [T. Murayama, N. Kurebayashi, M. Ishigami-Yuasa, S. Mori, Y. Suzuki, R. Akima, H. Ogawa, J. Suzuki, K. Kanemaru, H. Oyamada, Y. Kiuchi, M. Iino, H. Kagechika, T. Sakurai, Efficient High-Throughput Screening by Endoplasmic Reticulum Ca(2+) Measurement to Identify Inhibitors of Ryanodine Receptor Ca(2+)-Release Channels. […] The cells additionally stably express the Ca^2+ fluorescence indicator R-CEPIA1er, which is a genetically encoded sensor protein of Ca^2+ in the ER ([Ca^2+]ER) [T. Murayama, N. Kurebayashi, Assays for Modulators of Ryanodine Receptor (RyR)/Ca(2+) Release Channel Activity for Drug Discovery for Skeletal Muscle and Heart Diseases. Curr. Protoc.
The fluorescence ratio F/F0 was calculated, where F0 - is the average fluorescence for the first 90 s, F - is the average fluorescence for the last 100 s, and normalized.

T1 sequence (E9Q401 whole entry): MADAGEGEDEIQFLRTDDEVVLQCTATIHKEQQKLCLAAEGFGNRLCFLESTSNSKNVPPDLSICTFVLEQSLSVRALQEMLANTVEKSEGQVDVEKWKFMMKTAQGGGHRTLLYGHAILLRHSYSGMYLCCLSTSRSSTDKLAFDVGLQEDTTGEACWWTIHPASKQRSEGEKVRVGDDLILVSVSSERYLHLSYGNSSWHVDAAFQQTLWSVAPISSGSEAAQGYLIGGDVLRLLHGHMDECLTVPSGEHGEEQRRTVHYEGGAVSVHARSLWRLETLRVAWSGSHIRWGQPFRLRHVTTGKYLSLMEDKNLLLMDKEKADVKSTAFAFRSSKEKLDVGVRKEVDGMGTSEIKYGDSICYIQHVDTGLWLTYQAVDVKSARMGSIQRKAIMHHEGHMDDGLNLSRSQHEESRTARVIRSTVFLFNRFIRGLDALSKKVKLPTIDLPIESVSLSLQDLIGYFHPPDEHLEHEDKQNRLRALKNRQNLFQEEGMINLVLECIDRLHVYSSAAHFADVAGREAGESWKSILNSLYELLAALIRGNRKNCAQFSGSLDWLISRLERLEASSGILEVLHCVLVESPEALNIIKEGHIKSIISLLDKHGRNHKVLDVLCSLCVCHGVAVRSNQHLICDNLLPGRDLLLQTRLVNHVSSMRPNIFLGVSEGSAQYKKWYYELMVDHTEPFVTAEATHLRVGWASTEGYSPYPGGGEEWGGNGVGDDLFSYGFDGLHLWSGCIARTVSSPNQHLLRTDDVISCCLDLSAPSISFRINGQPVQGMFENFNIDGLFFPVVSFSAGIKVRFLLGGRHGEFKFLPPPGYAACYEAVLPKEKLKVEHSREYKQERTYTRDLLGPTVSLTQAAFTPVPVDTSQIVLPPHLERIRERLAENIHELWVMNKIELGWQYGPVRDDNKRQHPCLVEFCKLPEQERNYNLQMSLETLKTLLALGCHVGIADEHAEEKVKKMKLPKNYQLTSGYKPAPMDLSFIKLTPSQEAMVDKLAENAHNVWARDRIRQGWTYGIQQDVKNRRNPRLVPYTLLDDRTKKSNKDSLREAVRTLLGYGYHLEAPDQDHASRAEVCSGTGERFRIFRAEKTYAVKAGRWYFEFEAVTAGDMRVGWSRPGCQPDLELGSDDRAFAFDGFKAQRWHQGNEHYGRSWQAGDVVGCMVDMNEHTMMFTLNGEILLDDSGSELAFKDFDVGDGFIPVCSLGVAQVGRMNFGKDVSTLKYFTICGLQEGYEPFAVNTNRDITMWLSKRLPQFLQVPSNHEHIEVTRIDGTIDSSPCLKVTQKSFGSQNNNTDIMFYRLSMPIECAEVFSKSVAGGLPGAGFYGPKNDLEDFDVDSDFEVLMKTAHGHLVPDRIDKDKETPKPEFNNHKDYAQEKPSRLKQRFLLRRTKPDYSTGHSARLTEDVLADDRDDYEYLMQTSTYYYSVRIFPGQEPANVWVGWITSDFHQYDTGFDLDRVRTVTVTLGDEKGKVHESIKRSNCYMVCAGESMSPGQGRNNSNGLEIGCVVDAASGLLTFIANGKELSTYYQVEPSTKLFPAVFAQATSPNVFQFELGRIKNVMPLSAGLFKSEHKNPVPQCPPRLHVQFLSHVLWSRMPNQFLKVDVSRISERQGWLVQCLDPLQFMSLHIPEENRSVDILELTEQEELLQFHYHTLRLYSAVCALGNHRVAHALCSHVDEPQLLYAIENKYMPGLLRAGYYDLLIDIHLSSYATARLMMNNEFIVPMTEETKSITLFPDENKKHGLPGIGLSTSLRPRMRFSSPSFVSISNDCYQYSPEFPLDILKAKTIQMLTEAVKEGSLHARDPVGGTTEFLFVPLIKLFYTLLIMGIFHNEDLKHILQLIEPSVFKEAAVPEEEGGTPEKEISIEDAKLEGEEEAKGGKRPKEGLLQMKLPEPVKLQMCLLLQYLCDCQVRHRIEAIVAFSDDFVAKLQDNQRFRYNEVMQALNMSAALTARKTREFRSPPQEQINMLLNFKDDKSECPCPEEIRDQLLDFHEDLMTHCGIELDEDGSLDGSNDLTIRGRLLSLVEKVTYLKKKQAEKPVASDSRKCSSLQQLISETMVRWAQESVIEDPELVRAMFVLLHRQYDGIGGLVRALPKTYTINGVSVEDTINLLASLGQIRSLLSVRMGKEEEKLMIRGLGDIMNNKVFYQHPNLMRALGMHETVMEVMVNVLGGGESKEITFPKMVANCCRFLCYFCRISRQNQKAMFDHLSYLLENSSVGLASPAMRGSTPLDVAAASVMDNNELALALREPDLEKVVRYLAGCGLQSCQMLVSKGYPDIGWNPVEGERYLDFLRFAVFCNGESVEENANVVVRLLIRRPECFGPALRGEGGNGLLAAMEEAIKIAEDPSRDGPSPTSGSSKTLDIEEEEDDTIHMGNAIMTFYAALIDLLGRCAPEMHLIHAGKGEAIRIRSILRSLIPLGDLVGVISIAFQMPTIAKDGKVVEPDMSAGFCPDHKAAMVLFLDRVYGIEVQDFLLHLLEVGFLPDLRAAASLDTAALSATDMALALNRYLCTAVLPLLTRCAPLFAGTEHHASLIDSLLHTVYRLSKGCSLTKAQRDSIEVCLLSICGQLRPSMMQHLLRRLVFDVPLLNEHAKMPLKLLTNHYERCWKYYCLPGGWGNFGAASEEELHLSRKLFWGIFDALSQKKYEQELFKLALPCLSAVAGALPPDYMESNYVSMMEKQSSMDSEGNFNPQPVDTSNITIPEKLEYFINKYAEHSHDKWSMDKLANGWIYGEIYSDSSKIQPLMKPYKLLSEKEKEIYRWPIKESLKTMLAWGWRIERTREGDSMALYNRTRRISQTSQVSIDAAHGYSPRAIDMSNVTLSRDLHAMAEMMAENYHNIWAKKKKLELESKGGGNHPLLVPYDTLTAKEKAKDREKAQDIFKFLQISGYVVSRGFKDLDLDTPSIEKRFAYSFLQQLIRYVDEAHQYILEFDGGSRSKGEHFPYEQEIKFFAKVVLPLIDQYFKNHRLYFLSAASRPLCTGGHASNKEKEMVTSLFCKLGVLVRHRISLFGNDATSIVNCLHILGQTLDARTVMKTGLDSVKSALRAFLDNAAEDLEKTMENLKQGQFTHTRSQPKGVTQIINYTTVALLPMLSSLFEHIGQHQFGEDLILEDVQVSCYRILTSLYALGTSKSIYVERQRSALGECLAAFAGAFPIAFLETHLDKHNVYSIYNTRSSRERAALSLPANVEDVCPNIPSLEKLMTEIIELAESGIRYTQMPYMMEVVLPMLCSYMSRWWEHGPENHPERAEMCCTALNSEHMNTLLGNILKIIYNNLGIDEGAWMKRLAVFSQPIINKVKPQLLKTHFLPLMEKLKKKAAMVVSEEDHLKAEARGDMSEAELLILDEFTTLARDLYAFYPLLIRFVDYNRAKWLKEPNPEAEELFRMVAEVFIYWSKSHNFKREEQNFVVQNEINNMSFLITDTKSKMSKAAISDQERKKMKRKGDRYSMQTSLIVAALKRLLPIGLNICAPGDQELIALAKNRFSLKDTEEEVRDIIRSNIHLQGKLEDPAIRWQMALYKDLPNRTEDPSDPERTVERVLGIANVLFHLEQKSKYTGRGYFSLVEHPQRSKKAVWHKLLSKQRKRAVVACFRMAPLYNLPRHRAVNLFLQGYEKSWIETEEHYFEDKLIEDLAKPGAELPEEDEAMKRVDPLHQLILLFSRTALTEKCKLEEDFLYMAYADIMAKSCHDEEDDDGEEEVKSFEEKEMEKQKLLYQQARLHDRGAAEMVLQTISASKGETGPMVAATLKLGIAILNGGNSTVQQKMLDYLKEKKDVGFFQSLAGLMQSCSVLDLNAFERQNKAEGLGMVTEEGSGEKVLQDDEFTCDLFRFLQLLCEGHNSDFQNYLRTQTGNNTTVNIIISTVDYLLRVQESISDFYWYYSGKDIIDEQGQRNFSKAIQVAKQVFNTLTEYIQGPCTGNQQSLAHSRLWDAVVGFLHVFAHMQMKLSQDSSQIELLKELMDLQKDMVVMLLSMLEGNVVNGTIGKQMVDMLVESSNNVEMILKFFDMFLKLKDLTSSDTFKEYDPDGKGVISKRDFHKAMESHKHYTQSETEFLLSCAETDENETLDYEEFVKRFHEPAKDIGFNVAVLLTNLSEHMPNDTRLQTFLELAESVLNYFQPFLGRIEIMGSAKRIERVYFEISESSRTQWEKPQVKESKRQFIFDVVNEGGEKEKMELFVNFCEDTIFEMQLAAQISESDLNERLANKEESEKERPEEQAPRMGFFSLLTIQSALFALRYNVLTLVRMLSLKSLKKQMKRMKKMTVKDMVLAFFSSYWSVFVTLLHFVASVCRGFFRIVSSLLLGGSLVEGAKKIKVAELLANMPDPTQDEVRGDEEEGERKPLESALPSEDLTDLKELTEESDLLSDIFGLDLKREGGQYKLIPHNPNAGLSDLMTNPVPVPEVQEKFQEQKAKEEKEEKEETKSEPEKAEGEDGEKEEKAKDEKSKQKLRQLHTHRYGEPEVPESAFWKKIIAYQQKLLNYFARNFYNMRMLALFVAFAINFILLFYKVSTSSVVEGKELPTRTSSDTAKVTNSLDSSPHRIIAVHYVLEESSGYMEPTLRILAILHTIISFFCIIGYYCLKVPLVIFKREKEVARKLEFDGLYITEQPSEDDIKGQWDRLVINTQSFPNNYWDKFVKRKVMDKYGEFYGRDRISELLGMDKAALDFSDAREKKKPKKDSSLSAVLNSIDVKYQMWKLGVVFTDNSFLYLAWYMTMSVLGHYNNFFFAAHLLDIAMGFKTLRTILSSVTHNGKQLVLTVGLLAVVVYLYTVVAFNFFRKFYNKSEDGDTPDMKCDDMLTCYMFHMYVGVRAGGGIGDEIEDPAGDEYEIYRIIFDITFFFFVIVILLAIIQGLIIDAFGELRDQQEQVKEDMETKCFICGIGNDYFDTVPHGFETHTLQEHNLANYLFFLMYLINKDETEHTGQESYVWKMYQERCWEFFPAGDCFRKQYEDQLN

Compound | RyR2 effect class | effect on [Ca^2+]ER (R-CEPIA1er fluorescence), in words | EC50
COc1ccc2c(c1)CN(C(=O)C(=O)O)CCS2 [Compound S36, reference compound] | +++ | increase in R-CEPIA1er fluorescence | 
COc1ccc2c(c1)CN(Cc1ccc(C(=O)O)cc1)CCS2 [ARM210, reference compound] | ++ | significantly increased [Ca^2+]ER | 
COc1ccc2c(c1)CN(CCCCN(CCCCC1(O)CC1)CCCCC1(O)CC1)CCS2 [Compound 14a, 1,1'-(((4-(7-Methoxy-2,3-dihydrobenzo[1,4-f]thiazepin-4(5H)-yl)butyl)azanediyl)bis(butane-4,1-diyl))bis(cyclopropan-1-ol)] | +++ |  | 
COc1ccc(OCCCNCCCCC2(O)CC2)cc1 [Compound 13b, 1-(4-((3-(4-methoxyphenoxy)propyl)amino)butyl)cyclopropan-1-ol] | +++ |  | 81.5 nM
COc1ccc(SCCCNCCCCC2(O)CC2)cc1 [Compound 13c, 1-(4-((3-((4-Methoxyphenyl)thio)propyl)amino)butyl)cyclopropan-1-ol] | ++ |  | 10.2 nM
COc1ccc(SCCCN(CCCCC2(O)CC2)CCCCC2(O)CC2)cc1 [Compound 14c, 1,1'-(((3-((4-Methoxyphenyl)thio)propyl)azanediyl)bis(butane-4,1-diyl))bis(cyclopropan-1-ol)] | + |  | 18.6 nM
COc1ccc2c(c1)CN(CCCCC1(O)CC1)CCS2 [Compound 13d, 1-(4-(7-methoxy-2,3-dihydrobenzo[1,4-f]thiazepin-4(5H)-yl)butyl)cyclopropan-1-ol] | - | no significant RyR2-stabilizing effect | 
COc1ccc2c(c1)CN(CCCCNCCCCC1(O)CC1)CCS2 [Compound 13a, 1-(4-((4-(7-Methoxy-2,3-dihydrobenzo[1,4-f]-thiazepin-4(5H)-yl)butyl)amino)butyl)cyclopropan-1-ol] | ++ |  | 
